Consider one compound from US20260272865A1, “HYDROXYPHENYL PROPANOATE COMPOUNDS FOR TUMOUR IMMUNOTHERAPY, COMPOSITIONS AND USES THEREOF” (UTI LIMITED PARTNERSHIP, priority 2023, published 2026).

In series [1] the test system is NF-κB pathway. Kind of series: NF-κB activity reporter assay in THP1-Dual cells. The class given is cell-based, human. As to the method: NF-κB and IRF induction assays were performed using mouse RAW-Dual™ (InvivoGen) and human THP1-Dua™ (InvivoGen) reporter cell lines. The cells were resuspended in freshly prepared test media at a concentration of 1.0×10^6 cells/mL for RAW-Dual™ and 5.0×10^5 cells/mL for THP1-Dual™. 180 μL of cells were seeded per well in a standard 96-well plate and optimized the concentration of several PRR agonists that trigger NF-κB and IRF. To test the metabolite effect on these pathways, 10 μL of the optimized receptor agonist, 10 μL of the 2 mM metabolite solution or vehicle was added to each well, making a final volume of 200 μL. To neutralize IL-1 receptor signalling, anti-IL-1a (clone 7D4, InvivoGen) and anti-IL-1β (clone 4H5, InvivoGen) antibodies were added and IgG1 isotype (clone T8E5, InvivoGen) was used as a control, as per manufacturer's recommendation. NF-κB activity was determined by measuring secreted embryonic alkaline phosphatase (SEAP) levels using QUANTI-Blue™ solution (InvivoGen). After aliquoting 20 μL of cell culture supernatant into 180 μL of QUANTI-Blue™, the conversion of color to blue was monitored and SEAP levels were determined using a SpectraMax i3 from Molecular Devices at 650 nm. To assess IRF induction, secreted lucia luciferase levels were measured in the culture medium using QUANTI-Luc™ solution (InvivoGen). 20 μL of cell culture supernatant was aliquoted into 50 μL of QUANTI-Luc™ solution and the luminescence reading was immediately recorded using the SpectraMax i3.

The subject of series [2] is OVA-specific CD8 T cells. Description: Flow cytometry of OVA-specific CD8 T cells within M3-9-M^OVA tumours. The class given is in vivo, mouse. As to conditions: male IMDM-CR mice, 18 days after implantation. As to the method: Tumours were isolated from mice and single cell suspensions were made using a mouse tumour dissociation kit following the manufacturer's instructions (Miltenyi Biotec). The isolated tumours were minced into pieces ~2-4 mm in diameter using a sterile scalpel, homogenized the tumour samples in RPMI 1640 media and enzyme mix for 1 minute, and incubated the homogenates for 40 minutes with continuous gentle shaking at 37° C. The homogenates were then filtered through a 70 μm cell strainer followed by centrifuging the single cell suspensions. The red blood cells (RBC) were removed using RBC lysis buffer. A Percoll gradient based leukocyte separation was performed followed by live and dead cell staining using Zombie Aqua dye (BioLegend). Cell surface markers were stained using ant-CD4-FITC (clone RM4-4, BioLegend), anti-CD8-PE.Cy7 (clone 53-6.7, BioLegend), anti-CD3-BV421 (clone 145-2C11, BioLegend), anti-CD45-APC.Cy7 (clone 30-F11, BioLegend), anti-PD-1-FITC (clone 29F.1A12, BioLegend), anti-TIM3-PE (clone RMT3-23, BioLegend) and anti-LAG3-PerCP/Cy5.5 (clone C9B7W, BioLegend) for T lymphocytes. For OVA-specific CD8 T cell detection, H-2K(b) chicken ova 257-264 human B2M SIINFEKL Alexa 647-labeled tetramer was used. The cells were washed after staining with FACS buffer and quantified using the Attune NxT Flow Cytometer (Thermo Fisher Scientific).

The test system of series [3] is M3-9-M^OVA tumours. Kind of series: Orthotopic M3-9-M^OVA rhabdomyosarcoma in IMDM-CR mice: immune surveillance, overall survival. The class given is in vivo, mouse.
Series [4] deals with T1, GSDMD (Homo sapiens, UniProt P57764).
T1 construct: host or cells: THP1-Dual cells (human monocytic reporter line)
T1 sequence (P57764 1-484): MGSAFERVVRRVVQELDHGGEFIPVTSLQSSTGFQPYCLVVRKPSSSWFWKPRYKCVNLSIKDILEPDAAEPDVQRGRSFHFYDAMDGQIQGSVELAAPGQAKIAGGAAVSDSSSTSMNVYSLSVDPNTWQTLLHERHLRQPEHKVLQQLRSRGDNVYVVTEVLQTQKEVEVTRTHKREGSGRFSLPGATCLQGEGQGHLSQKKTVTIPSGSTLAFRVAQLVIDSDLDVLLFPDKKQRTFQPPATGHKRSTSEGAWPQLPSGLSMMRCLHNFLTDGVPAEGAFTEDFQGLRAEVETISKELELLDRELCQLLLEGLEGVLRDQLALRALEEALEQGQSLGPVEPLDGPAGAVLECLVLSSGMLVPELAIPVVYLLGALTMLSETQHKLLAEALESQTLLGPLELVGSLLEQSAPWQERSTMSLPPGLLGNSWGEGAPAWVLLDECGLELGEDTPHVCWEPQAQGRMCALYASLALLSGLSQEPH
Description: Western blot of GSDMD cleavage in THP-1 cells. The format is cell-based. As to the method:
Cells were collected and lysates prepared using total lysis buffer (50 mM Tris-HCl, pH 8.0; 150 mM NaCl; 1% Triton X-100; 1% SDS). The supernatant was obtained by centrifuging at 10,000 RPM for 10 minutes at 4° C. using a benchtop PCR centrifuge. Protein quantification was performed using the Bio-Rad DC Protein Assay Kit (Bio-Rad, NC, USA). Proteins were separated using 12% SDS-PAGE gels and transferred to a PVDF membrane using the Bio-Rad Trans-turbo semi-dry transfer apparatus at 25 V/1 A for 1 hour. The membrane was blocked with Tris-buffered-saline-Tween-20™ (TBST) containing 5% skim milk for 30 minutes at room temperature. The membrane was then probed overnight at 4° C. with rabbit monoclonal recombinant anti-GSDMD antibody (ab210070, Abcam), anti-cleaved N-terminal GSDMD antibody (ab215203, Abcam) and mouse anti-actin monoclonal antibody (MAB1501, MilliporeSigma) for human FL-GSDMD, CL-GSDMD and actin. The next day, the membranes were washed with TBST three times and probed with goat anti-rabbit (1706515, Bio-Rad) or goat anti-mouse (1706516, Bio-Rad) horseradish peroxidase-conjugated IgG for 1 hour at room temperature. The secondary antibodies were diluted in TBST containing 5% (w/v) skim milk at 1:5000 and the membranes washed with TBST before detecting the proteins of interest using the Clarity™ Western ECL Substrate (Bio-Rad) on a Chemidoc-IT Imager (UVP, Upland, CA, USA).

Series [5] is described as follows: Maximum tolerable dose and body weight of mice given metabolite intraperitoneally. The format is in vivo. As to conditions: 83 mg/kg body weight, given every 48 hours, intraperitoneal.

With `O=C(O)CCc1ccccc1O` [Compound I-1, 3-(2-hydroxyphenyl)propanoic acid], the “NF-κB pathway activation combined with PRR agonists” value in series [1] (LPS or other NF-κB pathway inducers) was “potentiate”. The “NF-κB pathway activation when treated with LPS” value in series [1] (LPS, 16 hours, vs vehicle) is reported as “potentiates”. Also, in series [2], the “expression of exhaustion markers PD1, TIM3, LAG3 on OVA-specific CD8 T cells” value was “no significant changes” and the “frequency of OVA-specific CD8 T cells in the tumour” value was “increase the frequency”. Also, the “overall survival, treatment initiated seven days after implantation” value in series [3] (IMDM-CR mice, M3-9-M^OVA, treatment started 7 days after implantation) is “still effective”. Moreover, the “immune surveillance of M3-9-M^OVA tumours (overall survival)” value in series [3] (male IMDM-CR mice, i.p. treatment from day 1 post-implantation) is on record as “enhance the immune surveillance”. Also, in series [4], the “GSDMD cleavage in the presence of LPS or LPS+NG stimulation” value is recorded as “facilitating gasdermin D cleavage”. In series [5], the “toxicity or weight loss” value is given as “without toxicity or weight loss”.
